Assay results taken from patent US20130096170A1 (priority 2011, published 2013).

Tests used:
[1] = human, in vivo
[2] = human, in vivo; remark: listed apart in the source
clinical = conditions: human

## Cc1cccc([C@H](C)c2cnc[nH]2)c1C [dexmedetomidine]
[1]
  AUC (0-Infinity)Dose: 2102.55 (n = 2) (pg/mL)hr/μg
  AUC (0-Last): 813.26 (pg/mL)hr
  Vdw: 3.47 (n = 2) L/kg
  dose-adjusted AUC (0-Infinity), additional cohort versus age group II: 4.6 times higher
  t1/2: 8 h
[2]
  t1/2, Mean: 2.260 h
clinical; in vivo
  Vd: 43 L
clinical; in vivo, AUC0-t
  AUC(0-t): 117 ng·h/mL
clinical; in vivo, AUC0-∞
  AUC(0-inf): 117 ng·h/mL
clinical; in vivo, Cmax
  Cmax: 28.8 ng/mL
clinical; in vivo, weight-adjusted clearance
  clearance: ~16.7 mL/min/kg
clinical; plasma, intravenous, 0.2 ug/kg, CL, Group I (≥2 to <6 y), Dose Level 1 (LD 0.25/CD 0.2 μg/kg/hr), geometric mean, full evaluable population
  clearance: 271 mL/min
clinical; plasma, intravenous, 0.2 ug/kg, CL, Group II (≥6 to <17 y), Dose Level 1 (LD 0.25/CD 0.2 μg/kg/hr), geometric mean, full evaluable population
  clearance: 412 mL/min
clinical; plasma, intravenous, 0.2 ug/kg, Vd, Group I (≥2 to <6 y), Dose Level 1 (LD 0.25/CD 0.2 μg/kg/hr), geometric mean, full evaluable population
  Vd: 36.9 L
clinical; plasma, intravenous, 0.2 ug/kg, Vd, Group II (≥6 to <17 y), Dose Level 1 (LD 0.25/CD 0.2 μg/kg/hr), geometric mean, full evaluable population
  Vd: 51.7 L
clinical; plasma, intravenous, 0.4 ug/kg, CL, Group I (≥2 to <6 y), Dose Level 2 (LD 0.50/CD 0.4 μg/kg/hr), geometric mean, full evaluable population
  clearance: 212 mL/min
clinical; plasma, intravenous, 0.4 ug/kg, CL, Group II (≥6 to <17 y), Dose Level 2 (LD 0.50/CD 0.4 μg/kg/hr), geometric mean, full evaluable population
  clearance: 413 mL/min
clinical; plasma, intravenous, 0.4 ug/kg, Vd, Group I (≥2 to <6 y), Dose Level 2 (LD 0.50/CD 0.4 μg/kg/hr), geometric mean, full evaluable population
  Vd: 31.8 L
clinical; plasma, intravenous, 0.4 ug/kg, Vd, Group II (≥6 to <17 y), Dose Level 2 (LD 0.50/CD 0.4 μg/kg/hr), geometric mean, full evaluable population
  Vd: 61.2 L
clinical; plasma, intravenous, 0.7 ug/kg, CL, Group I (≥2 to <6 y), Dose Level 3 (LD 1.00/CD 0.7 μg/kg/hr), geometric mean, full evaluable population
  clearance: 276 mL/min
clinical; plasma, intravenous, 0.7 ug/kg, CL, Group II (≥6 to <17 y), Dose Level 3 (LD 1.00/CD 0.7 μg/kg/hr), geometric mean, full evaluable population
  clearance: 274 mL/min
clinical; plasma, intravenous, 0.7 ug/kg, Vd, Group I (≥2 to <6 y), Dose Level 3 (LD 1.00/CD 0.7 μg/kg/hr), geometric mean, full evaluable population
  Vd: 46.6 L
clinical; plasma, intravenous, 0.7 ug/kg, Vd, Group II (≥6 to <17 y), Dose Level 3 (LD 1.00/CD 0.7 μg/kg/hr), geometric mean, full evaluable population
  Vd: 46.6 L
clinical; plasma, intravenous, 2 ug/kg, CL, Group I (≥2 to <6 y), Dose Level 4 (LD 1.00/CD 2.00 μg/kg/hr), geometric mean, full evaluable population
  clearance: 199 mL/min
clinical; plasma, intravenous, 2 ug/kg, CL, Group II (≥6 to <17 y), Dose Level 4 (LD 1.00/CD 2.00 μg/kg/hr), geometric mean, full evaluable population
  clearance: 423 mL/min
clinical; plasma, intravenous, 2 ug/kg, Vd, Group I (≥2 to <6 y), Dose Level 4 (LD 1.00/CD 2.00 μg/kg/hr), geometric mean, full evaluable population
  Vd: 36.3 L
clinical; plasma, intravenous, 2 ug/kg, Vd, Group II (≥6 to <17 y), Dose Level 4 (LD 1.00/CD 2.00 μg/kg/hr), geometric mean, full evaluable population
  Vd: 72.8 L
clinical; plasma, intravenous, AUC0-t Mean, Dose Level 1, LD 0.25/CD 0.2 μg/kg/hr, full evaluable population
  AUC(0-t): 2.68 ng·h/mL
clinical; plasma, intravenous, AUC0-t Mean, Dose Level 2, LD 0.50/CD 0.4 μg/kg/hr, full evaluable population
  AUC(0-t): 6.46 ng·h/mL
clinical; plasma, intravenous, AUC0-t Mean, Dose Level 3, LD 1.00/CD 0.7 μg/kg/hr, full evaluable population
  AUC(0-t): 17 ng·h/mL
clinical; plasma, intravenous, AUC0-t Mean, Dose Level 4, LD 1.00/CD 2.00 μg/kg/hr, full evaluable population
  AUC(0-t): 28.5 ng·h/mL
clinical; plasma, intravenous, AUC0-t Median, Dose Level 1, LD 0.25/CD 0.2 μg/kg/hr, full evaluable population
  AUC(0-t): 1.54 ng·h/mL
clinical; plasma, intravenous, AUC0-t Median, Dose Level 2, LD 0.50/CD 0.4 μg/kg/hr, full evaluable population
  AUC(0-t): 5.25 ng·h/mL
clinical; plasma, intravenous, AUC0-t Median, Dose Level 3, LD 1.00/CD 0.7 μg/kg/hr, full evaluable population
  AUC(0-t): 5.61 ng·h/mL
clinical; plasma, intravenous, AUC0-t Median, Dose Level 4, LD 1.00/CD 2.00 μg/kg/hr, full evaluable population
  AUC(0-t): 25.4 ng·h/mL
clinical; plasma, intravenous, AUC0-t, Table 30 key summary (mean), Dose Level 1, LD 0.25/CD 0.2 μg/kg/hr, full evaluable population
  AUC(0-t): 2.68 ng·h/mL
clinical; plasma, intravenous, AUC0-t, Table 30 key summary (mean), Dose Level 2, LD 0.50/CD 0.4 μg/kg/hr, full evaluable population
  AUC(0-t): 6.46 ng·h/mL
clinical; plasma, intravenous, AUC0-t, Table 30 key summary (mean), Dose Level 3, LD 1.00/CD 0.7 μg/kg/hr, full evaluable population
  AUC(0-t): 17 ng·h/mL
clinical; plasma, intravenous, AUC0-t, Table 30 key summary (mean), Dose Level 4, LD 1.00/CD 2.00 μg/kg/hr, full evaluable population
  AUC(0-t): 28.5 ng·h/mL
clinical; plasma, intravenous, AUC0-∞ Mean, Dose Level 1, LD 0.25/CD 0.2 μg/kg/hr, full evaluable population
  AUC(0-inf): 3.15 ng·h/mL
clinical; plasma, intravenous, AUC0-∞ Mean, Dose Level 2, LD 0.50/CD 0.4 μg/kg/hr, full evaluable population
  AUC(0-inf): 6.67 ng·h/mL
clinical; plasma, intravenous, AUC0-∞ Mean, Dose Level 3, LD 1.00/CD 0.7 μg/kg/hr, full evaluable population
  AUC(0-inf): 17.3 ng·h/mL
clinical; plasma, intravenous, AUC0-∞ Mean, Dose Level 4, LD 1.00/CD 2.00 μg/kg/hr, full evaluable population
  AUC(0-inf): 29 ng·h/mL
clinical; plasma, intravenous, AUC0-∞ Median, Dose Level 1, LD 0.25/CD 0.2 μg/kg/hr, full evaluable population
  AUC(0-inf): 1.58 ng·h/mL
clinical; plasma, intravenous, AUC0-∞ Median, Dose Level 2, LD 0.50/CD 0.4 μg/kg/hr, full evaluable population
  AUC(0-inf): 5.52 ng·h/mL
clinical; plasma, intravenous, AUC0-∞ Median, Dose Level 3, LD 1.00/CD 0.7 μg/kg/hr, full evaluable population
  AUC(0-inf): 6.08 ng·h/mL
clinical; plasma, intravenous, AUC0-∞ Median, Dose Level 4, LD 1.00/CD 2.00 μg/kg/hr, full evaluable population
  AUC(0-inf): 25.7 ng·h/mL
clinical; plasma, intravenous, AUC0-∞, Table 30 key summary (mean), Dose Level 1, LD 0.25/CD 0.2 μg/kg/hr, full evaluable population
  AUC(0-inf): 3.15 ng·h/mL
clinical; plasma, intravenous, AUC0-∞, Table 30 key summary (mean), Dose Level 2, LD 0.50/CD 0.4 μg/kg/hr, full evaluable population
  AUC(0-inf): 6.67 ng·h/mL
clinical; plasma, intravenous, AUC0-∞, Table 30 key summary (mean), Dose Level 3, LD 1.00/CD 0.7 μg/kg/hr, full evaluable population
  AUC(0-inf): 17.3 ng·h/mL
clinical; plasma, intravenous, AUC0-∞, Table 30 key summary (mean), Dose Level 4, LD 1.00/CD 2.00 μg/kg/hr, full evaluable population
  AUC(0-inf): 29 ng·h/mL
clinical; plasma, intravenous, CL Mean, Dose Level 1, LD 0.25/CD 0.2 μg/kg/hr, full evaluable population
  clearance: 537 mL/min
clinical; plasma, intravenous, CL Mean, Dose Level 2, LD 0.50/CD 0.4 μg/kg/hr, full evaluable population
  clearance: 338 mL/min
clinical; plasma, intravenous, CL Mean, Dose Level 3, LD 1.00/CD 0.7 μg/kg/hr, full evaluable population
  clearance: 309 mL/min
clinical; plasma, intravenous, CL Mean, Dose Level 4, LD 1.00/CD 2.00 μg/kg/hr, full evaluable population
  clearance: 370 mL/min
clinical; plasma, intravenous, CL Median, Dose Level 1, LD 0.25/CD 0.2 μg/kg/hr, full evaluable population
  clearance: 326 mL/min
clinical; plasma, intravenous, CL Median, Dose Level 2, LD 0.50/CD 0.4 μg/kg/hr, full evaluable population
  clearance: 267 mL/min
clinical; plasma, intravenous, CL Median, Dose Level 3, LD 1.00/CD 0.7 μg/kg/hr, full evaluable population
  clearance: 270 mL/min
clinical; plasma, intravenous, CL Median, Dose Level 4, LD 1.00/CD 2.00 μg/kg/hr, full evaluable population
  clearance: 282 mL/min
clinical; plasma, intravenous, CL, Table 30 key summary (mean), Dose Level 1, LD 0.25/CD 0.2 μg/kg/hr, full evaluable population
  clearance: 537 mL/min
clinical; plasma, intravenous, CL, Table 30 key summary (mean), Dose Level 2, LD 0.50/CD 0.4 μg/kg/hr, full evaluable population
  clearance: 338 mL/min
clinical; plasma, intravenous, CL, Table 30 key summary (mean), Dose Level 3, LD 1.00/CD 0.7 μg/kg/hr, full evaluable population
  clearance: 310 mL/min
clinical; plasma, intravenous, CL, Table 30 key summary (mean), Dose Level 4, LD 1.00/CD 2.00 μg/kg/hr, full evaluable population
  clearance: 370 mL/min
clinical; plasma, intravenous, Cmax Mean, Dose Level 1, LD 0.25/CD 0.2 μg/kg/hr, full evaluable population
  Cmax: 0.48 ng/mL
clinical; plasma, intravenous, Cmax Mean, Dose Level 2, LD 0.50/CD 0.4 μg/kg/hr, full evaluable population
  Cmax: 0.848 ng/mL
clinical; plasma, intravenous, Cmax Mean, Dose Level 3, LD 1.00/CD 0.7 μg/kg/hr, full evaluable population
  Cmax: 3.39 ng/mL
clinical; plasma, intravenous, Cmax Mean, Dose Level 4, LD 1.00/CD 2.00 μg/kg/hr, full evaluable population
  Cmax: 3.09 ng/mL
clinical; plasma, intravenous, Cmax Median, Dose Level 1, LD 0.25/CD 0.2 μg/kg/hr, full evaluable population
  Cmax: 0.266 ng/mL
